Laboratory results as given in patent US20030203000A1, “Modulation of therapeutic agent release from a polymeric carrier using solvent-based techniques” (priority 2002, published 2003).

Assay: paclitaxel release profile from block-copolymer-coated stents in PBS with 0.5% Tween 20
Assay type: physicochemical
Conditions: release in PBS with 0.5% Tween 20, FIG. 1
Source text: A solution is provided that contains the following: 99 wt % solvent system, 0.25 wt % paclitaxel and 0.75 wt % block copolymer. The copolymer is synthesized using known techniques such as those described in U.S. Pat. No. 5,741,331, U.S. Pat. No. 4,946,899 and U.S. Ser. No. 09/734,639. The solvent system consists of tetrahydrofuran (THF) and toluene, which are provided in varying ratios in this example. The solution is provided by (1) mixing the paclitaxel and tetrahydrofuran, (2) adding the copolymer, (3) adding the toluene, (4) thoroughly mixing (e.g., overnight), and (5) filtering.
The solution is then placed in a syringe pump and fed to a spray nozzle. A stent is mounted onto a holding device parallel to the nozzle and, if desired, rotated to ensure uniform coverage. Depending on the spray equipment used, either the component or spray nozzle can be moved while spraying such that the nozzle moves along the component while spraying for one or more passes.
After a coating is formed in this fashion, it is dried, for example, by placing it in a preheated oven for 30 minutes at 65° C., followed by 3 hours at 70° C.
Three coated stents are formed in this manner using (in addition to 0.25 wt % paclitaxel and 0.75 wt % block copolymer) the following solvent species in the following relative amounts: (T) 99 wt % THF, (2) 75 wt % THF, 24 wt % toluene, (3) 50 wt % THF, 49 wt % toluene, (4) 25 wt % THF, 74 wt % toluene, (5) 5 wt % THF, 94 wt % toluene. Release rate as a function of time and cumulative release as a function of time (referred to herein as the “release profile”) were then measured in PBS with 0.5% Tweeng 20 (polyoxyethylene(20) sorbitan monolaurate) available from Sigma-Aldrich. The results are graphically illustrated in FIG. 1.

SMILES: CC(=O)O[C@H]1C(=O)[C@@]2(C)[C@H]([C@H](OC(=O)c3ccccc3)[C@]3(O)C[C@H](OC(=O)[C@H](O)[C@@H](NC(=O)c4ccccc4)c4ccccc4)C(C)=C1C3(C)C)[C@]1(OC(C)=O)CO[C@@H]1C[C@@H]2O [paclitaxel]
- paclitaxel release (release profile) (coating formed from higher THF-to-toluene ratios in the solvent system): more accelerated paclitaxel release
- paclitaxel release (release profile) (coating formed from lower THF-to-toluene ratios in the solvent system): more extended paclitaxel release
- paclitaxel release (release rate and cumulative release as a function of time) (stent coating of 0.25 wt % paclitaxel and 0.75 wt % block copolymer, THF solvent system with toluene added): reduced by the addition of toluene
